Experimental findings from patent US11434242B2, “Dopamine-b-hydroxylase inhibitors” (BIAL-PORTELA & Cª, S.A., priority 2017, dated 2022) are described below.

Marks after values point to notes of the source that are not given here.

In the experiment the target is T1, Dopamine beta hydroxylase (Homo sapiens, UniProt P09172).
T1 construct: 125 μl of plasma; tissue Instituto Português do Sangue Transplantação; host or cells: human plasma from healthy donors
T1 sequence (P09172 40-617 limits assumed): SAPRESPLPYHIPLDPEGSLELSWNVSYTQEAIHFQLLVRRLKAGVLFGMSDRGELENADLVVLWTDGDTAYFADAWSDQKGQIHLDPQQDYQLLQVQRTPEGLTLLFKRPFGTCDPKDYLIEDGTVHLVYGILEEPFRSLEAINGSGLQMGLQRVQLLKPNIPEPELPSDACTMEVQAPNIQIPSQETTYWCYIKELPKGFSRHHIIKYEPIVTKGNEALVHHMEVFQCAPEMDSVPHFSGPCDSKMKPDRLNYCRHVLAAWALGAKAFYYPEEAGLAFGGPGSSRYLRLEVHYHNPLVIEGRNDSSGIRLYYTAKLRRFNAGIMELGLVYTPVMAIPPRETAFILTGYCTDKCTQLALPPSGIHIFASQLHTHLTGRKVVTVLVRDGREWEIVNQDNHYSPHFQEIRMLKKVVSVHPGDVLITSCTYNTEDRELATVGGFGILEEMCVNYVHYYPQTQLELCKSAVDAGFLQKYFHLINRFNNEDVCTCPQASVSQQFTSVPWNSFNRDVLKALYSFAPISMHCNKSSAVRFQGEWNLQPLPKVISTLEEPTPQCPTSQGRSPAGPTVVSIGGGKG
The experiment can be described thus: Dopamine beta hydroxylase activity in human plasma. In kind it is biochemical. Summed up:
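Healthy-donor human plasma pre-incubated 10 min at 37° C with compound at final 10, 100 or 1000 nM in pH 5.0 acetate buffer with ascorbate, fumarate, pargyline, N-ethylmaleimide, catalase and copper sulfate. Tyramine substrate then added for 45 min; octopamine formed was isolated by SCX cartridge, periodate-converted and read at 330 nm; activity given as % control.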

`O=C(Cc1[nH]c(=S)n2c1[C@@H]1C[C@]1(c1c(F)ccc(Cl)c1F)C2)NCc1cccnc1` [Example 151, 2-((5aS,6aR)-5a-(3-chloro-2,6-difluorophenyl)-3-thioxo-2,3,5,5a,6,6a-hexahydrocyclopropa[3,4]pyrrolo[1,2-c]imidazol-1-yl)-N-(pyridin-3-ylmethyl)acetamide]: the “Plasma (0.01 μM), activity in % of control” value (inhibitor 0.01 μM) is on record as 73.7 % of control. For the same compound, the “Plasma (0.1 μM), activity in % of control” value (inhibitor 0.1 μM) is 20.2 % of control.
On to `O=C(Cc1[nH]c(=S)n2c1[C@@H]1C[C@]1(c1cc(Br)ccc1F)C2)NCC(F)(F)F` [Example 152, 2-((5aS,6aR)-5a-(5-bromo-2-fluorophenyl)-3-thioxo-2,3,5,5a,6,6a-hexahydrocyclopropa[3,4]pyrrolo[1,2-c]imidazol-1-yl)-N-(2,2,2-trifluoroethyl)acetamide], for which, under “inhibitor 0.01 μM”, the “Plasma (0.01 μM), activity in % of control” value is 72.1 % of control. For the same compound, the “Plasma (0.1 μM), activity in % of control” value (inhibitor 0.1 μM) was 17.8 % of control.
Take `O=C(Cc1[nH]c(=S)n2c1[C@@H]1C[C@]1(c1cc(Br)ccc1F)C2)NC1CCC1` [Example 153, 2-((5aS,6aR)-5a-(5-bromo-2-fluorophenyl)-3-thioxo-2,3,5,5a,6,6a-hexahydrocyclopropa[3,4]pyrrolo[1,2-c]imidazol-1-yl)-N-cyclobutylacetamide]: the “Plasma (0.01 μM), activity in % of control” value (inhibitor 0.01 μM) was 85.5 % of control. In addition, the “Plasma (0.1 μM), activity in % of control” value (inhibitor 0.1 μM) is recorded as 28.4 % of control.
In the same order, the values of `O=C(Cc1[nH]c(=S)n2c1[C@@H]1C[C@]1(c1cc(Br)ccc1F)C2)NC1CC1` [Example 154, 2-((5aS,6aR)-5a-(5-bromo-2-fluorophenyl)-3-thioxo-2,3,5,5a,6,6a-hexahydrocyclopropa[3,4]pyrrolo[1,2-c]imidazol-1-yl)-N-cyclopropylacetamide] are 89.5 % of control and 38.6 % of control.
Regarding `CN(C(=O)Cc1[nH]c(=S)n2c1[C@@H]1C[C@]1(c1cc(Br)ccc1F)C2)C1CCCC1` [Example 155, 2-((5aS,6aR)-5a-(5-bromo-2-fluorophenyl)-3-thioxo-2,3,5,5a,6,6a-hexahydrocyclopropa[3,4]pyrrolo[1,2-c]imidazol-1-yl)-N-cyclopentyl-N-methylacetamide], where the note is “inhibitor 0.01 μM”, the “Plasma (0.01 μM), activity in % of control” value is 91.5 % of control. Also, for the setting “inhibitor 0.1 μM”, the “Plasma (0.1 μM), activity in % of control” value is 19.7 % of control.
For the compound `O=C(Cc1[nH]c(=S)n2c1[C@@H]1C[C@]1(c1cc(Cl)ccc1F)C2)NCc1ccccc1` [Example 156, N-benzyl-2-((5aS,6aR)-5a-(5-chloro-2-fluorophenyl)-3-thioxo-2,3,5,5a,6,6a-hexahydrocyclopropa[3,4]pyrrolo[1,2-c]imidazol-1-yl)acetamide], the “Plasma (0.01 μM), activity in % of control” value (inhibitor 0.01 μM) was 88.6 % of control. Besides, the “Plasma (0.1 μM), activity in % of control” value (inhibitor 0.1 μM) is on record as 40.3 % of control.
The matching figures for `O=C(Cc1[nH]c(=S)n2c1[C@@H]1C[C@]1(c1cc(Br)ccc1F)C2)N1CCOCC1` [Example 157]: 84.2 % of control and 24.2 % of control.
The matching figures for `O=C(Cc1[nH]c(=S)n2c1[C@@H]1C[C@]1(c1cc(Cl)ccc1F)C2)N1CCCCC1` [Example 158, 2-((5aS,6aR)-5a-(5-chloro-2-fluorophenyl)-3-thioxo-2,3,5,5a,6,6a-hexahydrocyclopropa[3,4]pyrrolo[1,2-c]imidazol-1-yl)-1-(piperidin-1-yl)ethan-1-one]: 90.9 % of control and 52.1 % of control.
In the same order, the values of `N#CCNC(=O)Cc1[nH]c(=S)n2c1C[C@H](c1c(F)ccc(Br)c1F)C2` [Example 159, (R)-2-(6-(3-bromo-2,6-difluorophenyl)-3-thioxo-2,5,6,7-tetrahydro-3H-pyrrolo[1,2-c]imidazol-1-yl)-N-(cyanomethyl)acetamide] are 84.3 % of control and 50.9 % of control.
For `O=C(Cc1[nH]c(=S)n2c1C[C@H](c1c(F)ccc(Br)c1F)C2)N[C@@H]1CCCC[C@H]1O` [Example 160, 2-((R)-6-(3-bromo-2,6-difluorophenyl)-3-thioxo-2,5,6,7-tetrahydro-3H-pyrrolo[1,2-c]imidazol-1-yl)-N-((1R,2R)-2-hydroxycyclohexyl)acetamide], under “inhibitor 0.01 μM”, the “Plasma (0.01 μM), activity in % of control” value is given as 84.7 % of control. Besides, the “Plasma (0.1 μM), activity in % of control” value (inhibitor 0.1 μM) is 50.8 % of control.
In the same order, the values of `O=C(Cc1[nH]c(=S)n2c1C[C@H](c1c(F)ccc(Br)c1F)C2)N[C@H]1CCC[C@@H]1O` [Example 161, 2-((R)-6-(3-bromo-2,6-difluorophenyl)-3-thioxo-2,5,6,7-tetrahydro-3H-pyrrolo[1,2-c]imidazol-1-yl)-N-((1S,2S)-2-hydroxycyclopentyl)acetamide] are 85.0 % of control and 46.0 % of control.
In the same order, the values of `O=C(Cc1[nH]c(=S)n2c1C[C@@H](c1c(F)ccc(Cl)c1F)C2)NCCn1cccn1` [Example 162, (S)—N-(2-(1H-pyrazol-1-yl)ethyl)-2-(6-(3-chloro-2,6-difluorophenyl)-3-thioxo-2,5,6,7-tetrahydro-3H-pyrrolo[1,2-c]imidazol-1-yl)acetamide] are 87.2 % of control and 31.3 % of control.
In the same order, the values of `CN(C(=O)Cc1[nH]c(=S)n2c1C[C@@H](c1c(F)ccc(Cl)c1F)C2)C1CCS(=O)(=O)CC1` [Example 163, (S)-2-(6-(3-chloro-2,6-difluorophenyl)-3-thioxo-2,5,6,7-tetrahydro-3H-pyrrolo[1,2-c]imidazol-1-yl)-N-(1,1-dioxidotetrahydro-2H-thiopyran-4-yl)-N-methylacetamide] are 14.8 % of control and 2.4 % of control.
On to `CS(=O)(=O)C1CCN(C(=O)Cc2[nH]c(=S)n3c2C[C@@H](c2c(F)ccc(Br)c2F)C3)C1` (stereo partly drawn) [Example 164, 2-((S)-6-(3-bromo-2,6-difluorophenyl)-3-thioxo-2,5,6,7-tetrahydro-3H-pyrrolo[1,2-c]imidazol-1-yl)-1-(3-(methylsulfonyl)pyrrolidin-1-yl)ethan-1-one], for which, for the setting “inhibitor 0.01 μM”, the “Plasma (0.01 μM), activity in % of control” value was 65.8 % of control. The “Plasma (0.1 μM), activity in % of control” value (inhibitor 0.1 μM) was 17.1 % of control.
For `O=C(Cc1[nH]c(=S)n2c1C[C@@H](c1c(F)ccc(Br)c1F)C2)N1CCC2(CCOC2)CC1` [Example 165, (S)-2-(6-(3-bromo-2,6-difluorophenyl)-3-thioxo-2,5,6,7-tetrahydro-3H-pyrrolo[1,2-c]imidazol-1-yl)-1-(2-oxa-8-azaspiro[4.5]decan-8-yl)ethan-1-one], the “Plasma (0.01 μM), activity in % of control” value (inhibitor 0.01 μM) was 74.3 % of control. For the same compound, the “Plasma (0.1 μM), activity in % of control” value (inhibitor 0.1 μM) is on record as 14.8 % of control.
In the same order, the values of `O=C(Cc1[nH]c(=S)n2c1C[C@@H](c1c(F)ccc(Br)c1F)C2)N1CC[S+]([O-])CC1` [Example 166, (S)-2-(6-(3-bromo-2,6-difluorophenyl)-3-thioxo-2,5,6,7-tetrahydro-3H-pyrrolo[1,2-c]imidazol-1-yl)-1-(1-oxidothiomorpholino)ethan-1-one] are 66.9 % of control and 14.1 % of control.
For the compound `CN(C(=O)Cc1[nH]c(=S)n2c1C[C@@H](c1c(F)ccc(Br)c1F)C2)C1CCOC1` (stereo partly drawn) [Example 167, 2-((S)-6-(3-bromo-2,6-difluorophenyl)-3-thioxo-2,5,6,7-tetrahydro-3H-pyrrolo[1,2-c]imidazol-1-yl)-N-methyl-N-(tetrahydrofuran-3-yl)acetamide], the “Plasma (0.01 μM), activity in % of control” value (inhibitor 0.01 μM) is 50.8 % of control. Besides, the “Plasma (0.01 μM), activity in % of control, re-test (asterisked)” value (inhibitor 0.01 μM, re-tested under the same experimental conditions, asterisked data believed to be correct) is 78.0* % of control. For the same compound, the “Plasma (0.1 μM), activity in % of control” value (inhibitor 0.1 μM) is reported as 3.2 % of control. For the same compound, for the setting “inhibitor 0.1 μM, re-tested under the same experimental conditions, asterisked data believed to be correct”, the “Plasma (0.1 μM), activity in % of control, re-test (asterisked)” value is 28.0* % of control.
Take `O=C(Cc1[nH]c(=S)n2c1C[C@@H](c1c(F)ccc(Cl)c1F)C2)Nc1nncs1` [Example 168, (S)-2-(6-(3-chloro-2,6-difluorophenyl)-3-thioxo-2,5,6,7-tetrahydro-3H-pyrrolo[1,2-c]imidazol-1-yl)-N-(1,3,4-thiadiazol-2-yl)acetamide]: the “Plasma (0.01 μM), activity in % of control” value (inhibitor 0.01 μM) was 51.9 % of control. The “Plasma (0.1 μM), activity in % of control” value (inhibitor 0.1 μM) is reported as 10.5 % of control.
In the same order, the values of `O=C(Cc1[nH]c(=S)n2c1C[C@@H](c1c(F)ccc(Cl)c1F)C2)Nc1ccccn1` [Example 169, (S)-2-(6-(3-chloro-2,6-difluorophenyl)-3-thioxo-2,5,6,7-tetrahydro-3H-pyrrolo[1,2-c]imidazol-1-yl)-N-(pyridin-2-yl)acetamide] are 59.3 % of control and 17.1 % of control.
